Test results: ChEMBL document CHEMBL1201862, “PubChem BioAssay data set” (2004)
Each block holds one compound with its values, some of them ahead of it. The source made the active and inactive calls.

Key:
[1] = molecular target: T1, RNA-binding protein pos-1 (Caenorhabditis elegans, UniProt G5EF15); test: inhibitors of POS-1/mex-3 RNA binding, dose response, biochemical, fluorescence polarization (AID 1964);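 also: purified POS-1 fused to maltose binding protein made in E. coli; potency of compounds blocking POS-1 binding to fluorescent RNA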
T1 sequence (G5EF15 whole entry): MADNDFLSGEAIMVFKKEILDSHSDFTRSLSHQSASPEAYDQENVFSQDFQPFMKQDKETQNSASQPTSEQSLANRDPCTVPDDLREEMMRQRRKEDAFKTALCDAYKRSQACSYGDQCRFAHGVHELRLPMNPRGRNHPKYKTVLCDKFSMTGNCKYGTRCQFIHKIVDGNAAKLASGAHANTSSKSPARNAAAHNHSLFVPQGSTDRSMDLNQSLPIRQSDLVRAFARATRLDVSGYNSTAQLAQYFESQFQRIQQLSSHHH

[2] = molecular target: T2, Zinc finger protein mex-5 (Caenorhabditis elegans, UniProt Q9XUB2); test: MEX-5/TCR-2 RNA interaction inhibitors, dose response, biochemical, C. elegans, fluorescence polarization (AID 1960)
T2 sequence (Q9XUB2 whole entry): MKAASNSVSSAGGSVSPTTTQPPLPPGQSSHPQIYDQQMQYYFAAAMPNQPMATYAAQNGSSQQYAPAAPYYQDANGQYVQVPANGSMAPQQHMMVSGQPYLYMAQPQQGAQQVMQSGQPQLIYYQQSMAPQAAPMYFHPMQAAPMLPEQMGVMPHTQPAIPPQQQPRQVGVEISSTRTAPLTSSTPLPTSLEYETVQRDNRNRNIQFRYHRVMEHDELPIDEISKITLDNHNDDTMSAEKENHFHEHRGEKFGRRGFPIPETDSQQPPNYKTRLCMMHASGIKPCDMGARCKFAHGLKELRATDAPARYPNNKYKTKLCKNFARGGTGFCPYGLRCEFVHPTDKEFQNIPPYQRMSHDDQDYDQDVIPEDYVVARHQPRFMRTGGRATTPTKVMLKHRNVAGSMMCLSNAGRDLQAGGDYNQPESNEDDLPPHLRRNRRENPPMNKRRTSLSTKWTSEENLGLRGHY

[3] = molecular target: T3, Probable nicotinate-nucleotide adenylyltransferase (Staphylococcus aureus (strain N315), UniProt P65502); assay type: functional, Staphylococcus aureus subsp. aureus N315;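 as to IC50 Mean: confirmatory dose-response retesting of NadD inhibitor hits first found in an ultra-high-throughput screen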
[4] = molecular target: T3, Probable nicotinate-nucleotide adenylyltransferase; assay type: functional, Staphylococcus aureus subsp. aureus N315; conditions: read-out: IC50_Mean
[5] = molecular target: 26S proteasome non-ATPase regulatory subunit 14 (Homo sapiens, UniProt O00487); test: inhibition of proteasome subunit RPN11 – biochemical, fluorescence polarization, uHTS hits, confirmation (AID 602368); assay type: functional
[6] = molecular target: 72 kDa type IV collagenase (Homo sapiens, UniProt P08253); test: Dose Response validation of uHTS RPN11 inhibitor hits using a MMP-2 Fluorescence assay.; assay type: functional
Prothrombin = Prothrombin (Bos taurus, UniProt P00735); test: thrombin inhibition, dose response, biochemical, fluorescence polarization, uHTS hits (AID 602369); assay type: functional
Protein skinhead-1 = molecular target: T4, Protein skinhead-1 (Caenorhabditis elegans, UniProt P34707); assay type: functional
T4 sequence (P34707 whole entry): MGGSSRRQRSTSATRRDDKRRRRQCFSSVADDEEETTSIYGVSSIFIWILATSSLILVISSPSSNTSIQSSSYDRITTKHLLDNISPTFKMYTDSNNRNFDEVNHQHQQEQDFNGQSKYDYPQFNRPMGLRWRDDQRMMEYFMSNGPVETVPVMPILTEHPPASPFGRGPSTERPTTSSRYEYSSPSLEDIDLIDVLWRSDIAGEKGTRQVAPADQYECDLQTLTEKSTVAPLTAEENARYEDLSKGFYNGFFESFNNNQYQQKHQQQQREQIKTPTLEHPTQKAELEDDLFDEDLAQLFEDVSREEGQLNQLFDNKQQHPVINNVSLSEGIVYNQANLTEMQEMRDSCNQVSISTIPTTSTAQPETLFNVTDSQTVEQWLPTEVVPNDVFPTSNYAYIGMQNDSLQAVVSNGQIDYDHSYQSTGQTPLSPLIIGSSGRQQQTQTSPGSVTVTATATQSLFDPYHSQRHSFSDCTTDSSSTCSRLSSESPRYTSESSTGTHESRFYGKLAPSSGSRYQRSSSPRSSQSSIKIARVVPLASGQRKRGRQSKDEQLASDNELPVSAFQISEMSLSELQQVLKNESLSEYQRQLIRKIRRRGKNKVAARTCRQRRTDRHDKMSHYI

Kallikrein-7 = Kallikrein-7 (Homo sapiens, UniProt P49862); test: Fluorescence Intensity-based biochemical primary high throughput dose response assay to identify activators of kallikrein-7 (K7) zymogen.
[7] = inhibitors of intracellular T. cruzi replication, confirmation, NIH3T3 host cells, beta-gal luminescence (AID 2044); assay type: functional, cell-based;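 also: intracellular parasites grown in NIH/3T3 mouse fibroblasts as host cells; luminescent beta-galactosidase reporter signal from transgenic T. cruzi replicating inside host cells; inhibitors lower the luminescence signal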
[8] = cytotoxicity toward NIH3T3 fibroblasts, dose response, counter-screen, cell-based, ATP luminescence, mouse fibroblasts (AID 2010); assay type: functional;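 also: cells exposed to compound for about 90 hours before reading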
[9] = cytotoxicity in HEK-293T cells, dose response, cytotoxicity control for TCR NF-kB inhibitor project, luminescence, T-cell screen hits (AID 489026); assay type: functional, cell-based;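 also: cells exposed to compound about 14 hours before the viability readout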
INS1 = test: beta cell apoptosis inhibitors, cytokine rescue, dose response, luminescence, retest (AID 449756); assay type: functional, cell-based; conditions: Rattus norvegicus;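 also: cell death triggered by IL-1 beta plus TNF-alpha plus IFN-gamma mixture; protective hits raise ATP signal compared with cytokine alone wells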
[10] = Shn3 3'UTR reporter inhibitors, dose response, cell-based, Clone20 osteoblasts, firefly luciferase, cherry-picked (AID 624132); assay type: functional;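 also: firefly luciferase luminescence from reporter carrying the Shn3 3'UTR in osteoblasts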
[11] = HepG2 cell cytotoxicity, dose response, cytotoxicity control for Shn3 inhibitor project, CellTiter-Glo, cherry-picked (AID 624134); assay type: functional, cell-based
[12] = control 3'UTR Renilla luciferase suppression, dose response, counter-screen for Shn3 inhibitor project, cell-based, Clone20-Shn3RL, cherry-picked (AID 624133); assay type: functional
[13] = molecular target: T5, COUP transcription factor 2 (Homo sapiens, UniProt P24468); test: Luminescence-based cell-based high throughput dose response assay to identify inhibitors of COUP-TFII (NR2F2).; assay type: functional;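 also: HEK293 cells transiently cotransfected with COUP-TFII expression vector and reporter; luciferase reporter luminescence driven by COUP-TFII from the pX2-168 reporter plasmid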
T5 sequence (P24468 whole entry): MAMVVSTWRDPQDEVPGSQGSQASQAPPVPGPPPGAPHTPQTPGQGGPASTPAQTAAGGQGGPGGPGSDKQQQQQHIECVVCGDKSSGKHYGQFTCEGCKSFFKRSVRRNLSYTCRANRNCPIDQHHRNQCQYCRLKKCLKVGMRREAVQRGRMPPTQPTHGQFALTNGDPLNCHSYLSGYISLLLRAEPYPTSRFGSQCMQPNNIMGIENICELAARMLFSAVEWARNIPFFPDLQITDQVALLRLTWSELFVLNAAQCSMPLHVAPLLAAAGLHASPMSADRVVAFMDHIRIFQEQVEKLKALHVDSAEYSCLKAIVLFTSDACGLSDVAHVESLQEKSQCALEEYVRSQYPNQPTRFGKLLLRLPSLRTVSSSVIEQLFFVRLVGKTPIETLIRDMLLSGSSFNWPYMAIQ

[14] = miR-122 activators in hepatoma reporter cells, dose response, cell-based, Huh7 psiCHECK-miR122, Renilla luciferase, cherry-picked (AID 651956); assay type: functional;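 also: huh7 hepatoma cells stably carrying a psiCHECK-2 miR-122 sensor plasmid; renilla luciferase signal reporting endogenous miR-122 activity after 48 h compound exposure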
[15] = HEK293T cytotoxicity, dose response, cytotoxicity control for miR-122 modulator project, cell-based, inhibitor set, cherry-pick, set 2 (AID 720697); assay type: functional

Chain of 72 kDa type IV collagenase (P08253 whole entry): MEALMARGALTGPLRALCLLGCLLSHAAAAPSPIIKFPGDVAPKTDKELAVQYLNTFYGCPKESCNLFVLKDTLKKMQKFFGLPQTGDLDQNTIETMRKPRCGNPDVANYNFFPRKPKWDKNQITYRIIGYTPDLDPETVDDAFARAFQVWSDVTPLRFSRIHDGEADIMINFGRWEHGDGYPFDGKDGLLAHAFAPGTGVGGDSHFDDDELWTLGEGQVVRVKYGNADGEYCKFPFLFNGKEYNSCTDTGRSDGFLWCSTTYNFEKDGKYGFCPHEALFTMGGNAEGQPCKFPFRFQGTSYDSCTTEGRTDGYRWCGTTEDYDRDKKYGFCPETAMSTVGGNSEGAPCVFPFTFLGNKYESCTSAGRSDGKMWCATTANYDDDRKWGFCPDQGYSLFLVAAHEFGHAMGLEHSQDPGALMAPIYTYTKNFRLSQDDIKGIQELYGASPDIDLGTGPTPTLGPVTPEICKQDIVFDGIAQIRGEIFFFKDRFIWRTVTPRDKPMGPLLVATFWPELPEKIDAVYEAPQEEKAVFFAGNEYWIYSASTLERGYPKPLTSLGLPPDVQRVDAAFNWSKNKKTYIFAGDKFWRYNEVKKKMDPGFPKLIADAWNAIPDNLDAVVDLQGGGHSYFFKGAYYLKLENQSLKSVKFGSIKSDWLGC
Chain of Kallikrein-7 (P49862 whole entry): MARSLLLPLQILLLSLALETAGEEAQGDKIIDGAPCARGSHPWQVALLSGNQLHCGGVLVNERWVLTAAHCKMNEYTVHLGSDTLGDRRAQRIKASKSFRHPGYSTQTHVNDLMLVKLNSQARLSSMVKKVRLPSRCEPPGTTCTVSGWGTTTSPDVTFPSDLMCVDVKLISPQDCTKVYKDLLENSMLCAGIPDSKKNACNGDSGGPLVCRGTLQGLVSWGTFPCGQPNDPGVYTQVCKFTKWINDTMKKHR
Chain of 26S proteasome non-ATPase regulatory subunit 14 (O00487 whole entry): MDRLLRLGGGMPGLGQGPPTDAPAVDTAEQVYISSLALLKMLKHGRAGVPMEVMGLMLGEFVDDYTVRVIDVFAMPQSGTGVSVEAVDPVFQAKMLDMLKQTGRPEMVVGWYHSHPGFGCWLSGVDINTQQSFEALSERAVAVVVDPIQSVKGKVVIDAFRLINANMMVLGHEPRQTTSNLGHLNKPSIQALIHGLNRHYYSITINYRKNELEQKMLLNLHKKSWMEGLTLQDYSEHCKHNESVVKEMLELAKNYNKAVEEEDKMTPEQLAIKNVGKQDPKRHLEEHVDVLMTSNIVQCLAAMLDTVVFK

Structure (SMILES): CCCCC1=CC2=CC(=O)C(C)(OC(=O)CC)C(=O)C2=CO1 (stereo not drawn)
EC50 [1]: 27.8 µM (active)
EC50 [2]: 21.6 µM (active)
IC50 [3]: 9.32 µM (active)
IC50 [4]: 24 µM (active)

Structure (SMILES): COc1ccc(-c2csc(NC(=O)C3CCN(c4ncnc5sc(C)c(C)c45)CC3)n2)cc1OC
EC50 [7]: 1.37 µM (active)
EC50 [8]: > 60 µM (not active)
IC50 [9]: > 80 µM (inactive)
AC50 (INS1): 3.6 µM (active)
AC50 [10]: 1.42 µM (active)
AC50 [11]: 1.86 µM (active)
AC50 [12]: 0.857 µM (active)
IC50 [13]: 3.82 µM (active)

Structure (SMILES): CCOc1ccc2nc(NS(=O)(=O)c3cccs3)sc2c1
AC50 [14]: 6.98 µM (active)
AC50 [15]: 1.99 µM (active)

Structure (SMILES): COC(=O)CCCC1=CC2=CC(=O)C(C)(OC(=O)CCc3ccccc3)C(=O)C2=CO1 (stereo not drawn)
EC50 [1]: 30.9 µM (active)
EC50 [2]: 26.7 µM (active)
IC50 [3]: 5.76 µM (active)
IC50 [4]: 14.2 µM (active)

Now from value to compound:

IC50 [5]: 13.9 µM (active)
IC50 [6]: > 100 µM (inactive)
IC50 (Prothrombin): 32.4 µM (active)
IC50 (Protein skinhead-1): > 100 µM (inactive)
Structure (SMILES): Cn1c2ccccc2c2cc(C(=O)OCC(=O)N3CC(=O)Nc4ccccc43)sc21

EC50 (Kallikrein-7): 9.54 µM (active)
Structure (SMILES): N#C/C(=C/c1ccc(-c2ccc(S(N)(=O)=O)cc2)o1)C(=O)Nc1ccccc1
